Data on 14 compounds can be found in ChEMBL document CHEMBL1131754, “2-heterosubstituted-3-(4-methylsulfonyl)phenyl-5-trifluoromethyl pyridines as selective and orally active cyclooxygenase-2 inhibitors” (Bioorg Med Chem Lett, 1999).

The target of series [1] is T1, Prostaglandin G/H synthase 2 (Homo sapiens, UniProt P35354).
T1 sequence (P35354 whole entry): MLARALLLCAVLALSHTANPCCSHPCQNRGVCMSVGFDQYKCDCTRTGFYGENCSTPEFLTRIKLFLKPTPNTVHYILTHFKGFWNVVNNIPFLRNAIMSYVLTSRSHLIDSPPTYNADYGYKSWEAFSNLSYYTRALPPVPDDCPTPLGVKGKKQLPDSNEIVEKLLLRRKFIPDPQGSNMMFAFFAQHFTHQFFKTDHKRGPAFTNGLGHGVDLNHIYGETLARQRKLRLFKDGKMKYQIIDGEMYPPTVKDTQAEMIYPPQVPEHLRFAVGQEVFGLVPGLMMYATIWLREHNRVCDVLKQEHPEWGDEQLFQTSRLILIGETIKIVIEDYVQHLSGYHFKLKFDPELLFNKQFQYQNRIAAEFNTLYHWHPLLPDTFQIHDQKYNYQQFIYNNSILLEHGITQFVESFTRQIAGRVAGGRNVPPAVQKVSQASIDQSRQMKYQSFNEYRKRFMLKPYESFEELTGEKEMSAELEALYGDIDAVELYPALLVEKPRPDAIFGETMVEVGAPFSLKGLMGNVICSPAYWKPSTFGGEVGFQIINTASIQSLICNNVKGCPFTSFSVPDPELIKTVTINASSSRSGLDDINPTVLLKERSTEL
Description: Inhibition of Prostaglandin G/H synthase 2 in human whole blood (HWB) assay

Series [2] concerns the target T2, Prostaglandin G/H synthase 1 (Homo sapiens, UniProt P23219). The series can be described thus: In vitro inhibitory concentration required against Cyclooxygenase-1 (COX-1) determined in human whole blood (HWB) assay. It is filed as tissue-based.
Series [3] deals with T1, Prostaglandin G/H synthase 2. It is filed as cell-based, CHO whole.
Description: Inhibition of Prostaglandin G/H synthase 2 in CHO whole cell assay
Series [4] in a line: Half-life in rats with metabolic oxidation. The class given is ADME, organism-based. Conditions: rat, in vivo.
The subject of series [5] is Rattus norvegicus. The series can be described thus: Compound was tested in vivo for its efficacy in the rat pyresis assay. The class given is functional.
In series [6] the target is T2, Prostaglandin G/H synthase 1.
Description: Inhibition of Prostaglandin G/H synthase 1 in human whole blood (HWB) assay
Series [7] deals with Rattus norvegicus. The series can be described thus: Compound was tested in vivo for its efficacy in the rat paw edema assay. The class given is functional.
The test system of series [8] is Rattus norvegicus. The series can be described thus: Compound was tested in vivo for its efficacy in the model of carrageenan-induced hyperalgesia in rats. Conditions: read-out: ID50 (the source's name). It is filed as functional.
The nature of series [9]: Oral bioavailability in rat. It is filed as ADME, organism-based. The settings on record: in vivo.
The nature of series [10]: Half-life in rats was determined. The class given is ADME, organism-based. The settings on record: rat, in vivo.
Series [11] can be described thus: Half-life in rats. The class given is ADME, organism-based. Conditions: rat, in vivo.
The nature of series [12]: Maximum concentration in rats at 1-2 hours. The class given is ADME, organism-based. Conditions: rat, in vivo.
Series [13] can be described thus: Half life in rats. The class given is ADME, organism-based. Conditions: rat, in vivo.
The nature of series [14]: Maximum concentration in rats. Conditions: rat, in vivo. The class given is ADME, organism-based.
Series [15] in a line: Cmax in rats determined 6 hours after oral dosing of 20 mg/kg. The class given is ADME, organism-based. The arrangement: dose 20 mg/kg, route oral. Conditions: rat, in vivo.

The IC50 is the concentration that gives 50% inhibition. Read a high IC50 as lower potency. Usually half-life stands for the time needed for the level to fall by half in the phase considered. Low readings indicate fast loss, high ones slow loss. In general, bioavailability refers to the share of a dose that reaches the circulation, judged against a reference dose that is usually intravenous. Low values mean poor availability, high ones good availability. The Cmax is the highest concentration seen after dosing.

T2 sequence (P23219 whole entry): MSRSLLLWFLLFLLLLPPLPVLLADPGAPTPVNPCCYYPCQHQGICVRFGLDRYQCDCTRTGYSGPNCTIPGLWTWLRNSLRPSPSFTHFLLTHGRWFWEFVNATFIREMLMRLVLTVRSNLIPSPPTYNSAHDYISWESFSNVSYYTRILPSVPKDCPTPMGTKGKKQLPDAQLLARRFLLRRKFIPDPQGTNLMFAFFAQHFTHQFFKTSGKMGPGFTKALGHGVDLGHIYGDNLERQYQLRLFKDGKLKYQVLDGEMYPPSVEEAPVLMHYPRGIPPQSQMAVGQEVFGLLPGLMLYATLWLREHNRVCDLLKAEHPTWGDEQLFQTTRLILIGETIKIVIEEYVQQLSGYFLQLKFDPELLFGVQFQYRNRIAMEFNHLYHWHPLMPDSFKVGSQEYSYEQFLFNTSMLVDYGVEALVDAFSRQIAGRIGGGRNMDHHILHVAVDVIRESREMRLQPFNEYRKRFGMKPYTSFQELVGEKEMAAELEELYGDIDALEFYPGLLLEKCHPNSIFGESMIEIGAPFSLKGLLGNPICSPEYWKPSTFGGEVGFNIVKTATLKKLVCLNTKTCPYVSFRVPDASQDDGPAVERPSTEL

`CS(=O)(=O)c1ccc(-c2cc(C(F)(F)F)cnc2Oc2ccccc2)cc1`: the results for the IC50 in [1], in series [2] and in series [3] were less than 400 nM, less than 1240 nM and less than 200 nM, respectively.

Turning to `C[C@H](CO)Sc1ncc(C(F)(F)F)cc1-c1ccc(S(C)(=O)=O)cc1`, in series [4], the half-life is less than 120 min. In addition, the ED50 in [5] came out at 0.3 mg/kg; in series [7], 0.3 mg/kg; in series [8], 0.65 mg/kg. The IC50 in series [6] is 29 µM; in [1] it was 140 nM; in series [3], less than 200 nM. For the same compound, in series [9], the bioavailability is more than 75%.

`CC(C)(O)CSc1ncc(C(F)(F)F)cc1-c1ccc(S(C)(=O)=O)cc1`: the ED50 amounted to 0.5 mg/kg in series [5] and 1.5 mg/kg in [7]. Besides, the bioavailability in [9] was more than 75%. This compound also yielded a half-life in series [10] of more than 720 min.

Take `CS(=O)(=O)c1ccc(-c2cc(C(F)(F)F)cnc2OCC2(O)CCCC2)cc1`: the ED50 in [5] is 2.2 mg/kg; in series [7], 1.8 mg/kg. The same compound displayed an IC50 in series [6] of 83 µM. In series [11], the half-life is not above 240 min. In [9], this compound had a bioavailability of more than 75%. The compound further gave a Cmax in series [12] of 9 µM.

For `CS(=O)(=O)c1ccc(-c2cc(C(F)(F)F)cnc2OCc2ccc(Cl)cc2)cc1`, the values for the IC50 in series [6], in [1] and in series [3] were more than 100 µM, more than 33000 nM and less than 200 nM, respectively.

Turning to `C[C@H](Oc1ncc(C(F)(F)F)cc1-c1ccc(S(C)(=O)=O)cc1)C(C)(C)O`, the results for the ED50 in series [5] and in series [7] were 0.8 mg/kg and 2.2 mg/kg, respectively. The IC50 in series [6] is more than 100 µM; in [1], 460 nM; in [3], less than 200 nM. In series [9], this compound came in with a bioavailability of more than 75%.

On to `C[C@]1(O)CCC[C@H]1Oc1ncc(C(F)(F)F)cc1-c1ccc(S(C)(=O)=O)cc1`, for which the ED50 in series [5] amounted to 1.6 mg/kg; in [7], 0.4 mg/kg. The compound further displayed a half-life in series [13] not above 240 min. Also, the IC50 in series [6] is more than 100 µM. In [14], this compound showed a Cmax of 9 µM. In addition, the bioavailability in series [9] is more than 75%.

For `CCC(O)(CC)[C@H](C)Oc1ncc(C(F)(F)F)cc1-c1ccc(S(C)(=O)=O)cc1`, the ED50 turned out to be 1.3 mg/kg in [5] and 2.8 mg/kg in series [7]. Besides, the IC50 in [6] is more than 100 µM; in series [1], 4700 nM; in series [3], less than 200 nM. This compound yielded a bioavailability in [9] of more than 75%.

`CS(=O)(=O)c1ccc(-c2cc(C(F)(F)F)cnc2OCC(F)(F)F)cc1`: the 50% inhibitory concentration (IC50) in series [6] was more than 100 µM; in series [1], 500 nM; in series [3] it was less than 200 nM. This compound also had an ED50 in [7] of 2.4 mg/kg. The highest level in series [15] (Cmax) was 2400 nM.

For `CC(C)(O)COc1ncc(C(F)(F)F)cc1-c1ccc(S(C)(=O)=O)cc1`, the ED50 in series [5] was 6.8 mg/kg; in series [7], 1.9 mg/kg. Also, the IC50 was more than 100 µM in series [6], 1000 nM in [1] and less than 200 nM in [3]. Further, the half-life in series [11] was more than 720 min. In addition, the bioavailability in [9] is more than 75%.

Turning to `CS(=O)(=O)c1ccc(-c2cc(C(F)(F)F)cnc2N2CCCC(CO)C2)cc1` (stereo not drawn), the ED50 was determined as 0.5 mg/kg in [5] and 1.4 mg/kg in series [7]. The IC50 was 41 µM in series [6], 800 nM in series [1] and less than 200 nM in [3]. This compound also came in with a bioavailability in [9] of more than 75%. In addition, the half-life in series [10] was less than 120 min.

As for `CS(=O)(=O)c1ccc(-c2cc(C(F)(F)F)cnc2OC(C(F)(F)F)C(F)(F)F)cc1`, the values for the IC50 in series [6], in series [1] and in [3] were more than 100 µM, 500 nM and less than 200 nM, respectively.

For `CS(=O)(=O)c1ccc(-c2cc(Br)sc2-c2ccc(F)cc2)cc1` [DUP-697], in series [7], the ED50 came to 1.3 mg/kg.

For `COc1ccc2c(c1)c(CC(=O)O)c(C)n2C(=O)c1ccc(Cl)cc1` [INDOMETHACIN], the ED50 worked out at 1.1 mg/kg in [5], 2 mg/kg in [7] and 1.5 mg/kg in series [8].
